Results on four compounds are retold here after US5863916A, “8-aza, 6-aza and 6,8-diaza-1,4-dihydroquinoxaline-2,3-diones and the use thereof as antagonists for the glycine/NMDA receptor” (priority 1997, dated 1999).

Structures are written as SMILES.

One data set relates to katalepsy. The conditions noted are these: pigeons; cited from earlier work.
Another data set deals with brain ischemia / neurons. Particulars: cited from earlier work.
The test system of data set [1] is PCP-like behavioral effects. The conditions noted are these: in vivo; cited from earlier work.
Another data set in a line: log P (literature). It counts as physicochemical. Particulars: from benzene to pyridine N-oxide.
For data set [2], the system named is strychnine-insensitive glycine sites associated with NMDA receptors. Particulars: cited from earlier work.
A further data set has as its system MES-induced seizures. Description: anticonvulsant activity, maximum electroshock-induced seizure (MES) experiment in mice. Type of data set: in vivo, mouse. Particulars: Mus musculus, iv, read-out: ED50 as an anticonvulsant in MES experiment. How it is done:
The anticonvulsant activity of the glycine antagonists may be assessed in the maximum electroshock-induced seizure (MES) assay in mice. […] The seizure stimulus parameters were: 50 mA, 60 Hz, rectangular pulse, width 0.8 msec, duration 200 msec. Tonic hind limb extension observed after application of the electrical stimulus was recorded as occurrence of seizure. The drug was applied i.v. as an aqueous basic solution.

The target of the next data set is glycine/NMDA receptor. The data set is described as follows: glycine/NMDA receptor affinity (1 μM glycine-stimulated [3H]-MK801 binding, rat brain membranes; also estimated by electrophysiology). As for the experimental part: The assay is conducted using rat brain membrane homogenates that are enriched in NMDA receptors. The membranes are prepared as follows. Frozen rat brains (obtained from Pel-Freez, Rogers, Ark.) are homogenized in 15 volumes (w/v) of ice cold 0.32M sucrose. The homogenate is spun at 1,000×g for ten minutes. The supernatant is collected and spun for 20 minutes at 44,000×g. The pellet is suspended in 15 volumes of water (relative to original brain weight). The homogenate is again spun at 44,000×g for twenty minutes. The pellet is resuspended in 5 volumes of water and the suspension is freeze-thawed 2 times. After the final thaw cycle, the suspension is brought to 15 volumes with water and spun at 44,000×g for twenty minutes. The pellet is resuspended in 5 volumes of ice-cold 10 mM HEPES, and is titrated to pH 7.4 with KOH containing 0.04% Triton X-100. […] The volume is then brought to 15 with ice-cold 10 mM HEPES, pH 7.4, and spun/washed three times with spins of 44,000×g between washes. The final pellet is suspended in three volumes of 50 mM HEPES, pH 7.4 and the protein concentration is determined with a standard dye-binding protein assay (Bio-Rad, Richmond, Calif.). The suspension is stored at -80° C. until used. Only HPLC grade water is used for all buffers and suspensions/washings. The extensive washings are necessary to remove as much endogenous glycine from the membrane preparation as possible.
Nonspecific binding is defined as the […] presence of PCP (final concentration: 100 μM). […] A 500 nM concentration (final) of 5,7-dichlorokynurenic (DCK) acid is added to all assay tubes. This concentration of the glycine antagonist DCK "buffers" most of the residual endogenous glycine that is not removed by the extensive washing steps that are carried out during the membrane preparation procedure.
Filtration is accomplished using a Brandel 48 well cell harvester. Filtered membranes are washed three times with 3 mL each of ice cold buffer. Filters are transferred to scintillation vials and 5 mL of scintillation cocktail is added. The vials are shaken overnight and the radioactivity is counted by liquid scintillation spectroscopy. The assays are done in triplicate and all experiments are conducted at least three times.
(§1) The binding affinities at NMDA receptor glycine sites also were estimated by electrophysiological assay either using cloned rat NMDA receptors expressed in Xenopus oocytes, or non-NMDA receptors expressed in oocytes by whole rat brain poly(A)^+ RNA. […] For NMDA receptors Kb s were approximated by averaging values at three subtype combinations (NR1A/NR2A, NR1A/NR2B, and NR1A/NR2C).

The target in another data set is non-NMDA receptor. Description: non-NMDA receptor affinity. Type of data set: binding, rat. As for the experimental part:
(§2) Filtered membranes are washed three times with 3 mL each of ice cold buffer.
as §2, §1

Consider `c1ccc(C2(N3CCCCC3)CCCCC2)cc1` [PCP, phencyclidine], for which the katalepsy result in the data set on katalepsy is recorded as “characteristic katalepsy in pigeons”. Also, in the data set with brain ischemia / neurons, the neuroprotective efficacy result was “neuroprotective efficacy both in vitro and in vivo”. The “PCP-like behavioral side effects” value in data set [1] is on record as “behavioral excitation (hyperlocomotion) in rodents”.

`[O-][n+]1ccccc1` [pyridine N-oxide]: in the data set “log P (literature)”, the “difference in log P” value is on record as -3.84.

Turning to `Oc1nc2cccnc2nc1O` [pyrido (2,3-b)pyrazine-2,3-diol], the “inhibition of [3H]glycine binding” value in data set [2] is listed as “active inhibitor”.

As for `O=c1[nH]c2cc([N+](=O)[O-])c[n+]([O-])c2[nH]c1=O` [Compound 64, 7-Nitro-5-(N-oxy)aza-1,4-dihydroquinoxaline-2,3-dione], in the data set with MES-induced seizures, the ED50 lay within 3 to 4 mg/kg. For the same compound, the results for the Ki at glycine/NMDA receptor and at non-NMDA receptor were 130 nM and 340 nM, respectively.
